Measurements taken from patent publication US9095591B2, “Pharmaceutical composition for use in the treatment of glaucoma” (Institut National de la Sante et de la Recherche Medicale …, priority 2010, dated 2015).
“Also recorded” adds a separate entry of the source.

What was measured:
[1] = test system: rat model of surgically-induced glaucoma; experiment: Intraocular pressure (IOP, TonoPen) in rat model of surgically-induced glaucoma (episcleral vein cauterization); assay type: in vivo, Brown Norway rats; details: for effect on IOP in control (nonglaucomatous, non-operated) eyes: subconjunctival injection; for effect on IOP in glaucomatous eyes (CXCR4 antagonist comparison): subconjunctival injections, FIG. 3
Protocol: In order to test the functionality of putative CXCR3 blocking compounds on intraocular pressure (IOP), an in vivo test is necessary. For that purpose a model of local eye hypertonia is highly relevant. The model of ocular hypertonia in rats by episcleral vein occlusion (Garcia-Valenzuela et al., 1995) as described in the figures can be used to test such molecules.
Subconjunctival injections of NBI74330 (1 μM) or vehicle were performed in glaucoma eyes and in control eyes. One single injection of NBI (A) induced a reduction in IOP during 3 days (p<0.001). Two injections of NBI (A and B) induced a decrease in IOP during 12 days (p<0.001). […] (In vivo measurements of the IOP using TonoPen).
Male 8-week-old Brown Norway rats weighing 300-400 g were housed in Jussieu animal house (UMRS968, Vision Institute, Paris, France). All experiments were conducted in accordance with the Association for Research in Vision and Ophthalmology for the Use of Animals in Ophthalmic research. Ocular integrity was checked using slit lamp biomicroscope. Surgical model of elevated IOP was induced in the right eye of each rat by cauterization of three episcleral veins after conjunctival dissection as previously reported [Bayer A U et Al., 2001 and Garcia-Valenzuela E et Al., 1995] under general anaesthesia (intra peritoneal injection of ketamine 75 mg/kg and xylazine 10 mg/kg). Left eyes underwent conjunctival dissection only as controls. After the surgery, animals were maintained for a 1-month period and monitored for IOP three times a week using a handheld tonometer (Tonopen, Medtronics, Jacksonville, Fla.) without sedation. 30 animals presenting a stable elevated IOP were included and randomly divided in three equal groups: in both eyes, 10 rats received one subconjunctival injection of NBI74330 (1 μM, 100 μl), […], and 10 rats received a vehicle injection (PBS, 100 μl). IOP was monitored every two days by one independent person i.e. who was blind of the treatment. At the end of the experiments, animals were euthanized and the eyes were immediately conditioned for IHC.

trabecular meshwork = experiment: Trabecular percent effective filtration length (fluorescent microsphere injection, ex vivo confocal imaging of TMs); assay type: in vivo, Brown Norway rats; details: glaucomatous eyes; 1 μM, 100 μL, two subconjunctival injections
Protocol: (§1) Aqueous humor outflow was measured by in vivo fluorophotometry (FIG. 4A) and the trabecular aqueous outflow evaluated by fluorescent microsphere injection and ex vivo confocal imaging of TMs (data not shown). […] In parallel, rat TM tissues were assessed for cellularity and apoptosis by immunohistofluorescence and TUNEL-labeling.

[2] = test system: rat model of surgically-induced glaucoma; experiment: Aqueous humor outflow by in vivo fluorophotometry in rat glaucoma model; parameters: species or system Brown Norway rats; details: glaucomatous eyes vs vehicle-treated; 1 μM, 100 μL, two subconjunctival injections
Protocol: as §1

retinal ganglion cells = experiment: Apoptosis of Schlemm cells, retinal cells and retinal ganglion cells by TUNEL-labeling in rat glaucoma model; assay type: in vivo, Brown Norway rats
From the text: (§2) Eyes were conditioned into cryosections and assessed for apoptosis using TUNEL-labeling. TM was identified in each cryosections as a pigmented slim tissue on the posterior sclera-cornea beside the iris root and just above the endothelial Schlemm's canals.
Moreover, NBI-related reduction in IOP was associated with a decrease in retinal ganglion cell apoptosis as assessed by TUNEL-labeling (4.01±0.86, 11.11±3.62, and 5.73±1.15 apoptotic retinal ganglion cells/mm for control eyes, untreated glaucomatous eyes, and NBI-treated glaucomatous eyes, respectively; P<0.05 between each group).

trabecular cells = experiment: Trabecular cell apoptosis by TUNEL-labeling in rat glaucoma model; assay type: in vivo, Brown Norway rats; details: glaucoma eyes treated vs untreated
Protocol: as §2
Investigations were conducted in order to study mechanisms involved in the NBI-74330-related decrease in IOP. Aqueous humor outflow was measured by in vivo fluorophotometry (FIG. 4A) and the trabecular aqueous outflow evaluated by fluorescent microsphere injection and ex vivo confocal imaging of TMs (data not shown). […] This decrease in trabecular outflow facility is similar to what is observed during hypertensive POAG in humans. […] In parallel, rat TM tissues were assessed for cellularity and apoptosis by immunohistofluorescence and TUNEL-labeling.

[3] = glaucoma eyes treated vs untreated

Row | Structure (SMILES) | effect on IOP in control (nonglaucomatous, non-operated) eyes [1] | effect on IOP in control (nonglaucomatous, non-operated) eyes ([1]; listed as AMD-3100) | effect on IOP in glaucomatous eyes (CXCR4 antagonist comparison) ([1]; glaucomatous eyes (n=20)) | effect on IOP in glaucomatous eyes (CXCR4 antagonist comparison) ([1]; glaucomatous eyes (n=20), listed as AMD-3100) | percent effective filtration length (PEFL), trabecular filtrating surface (trabecular meshwork) | aqueous humor outflow (AHO) [2] | retinal ganglion cell apoptosis (TUNEL) (retinal ganglion cells; NBI-treated glaucomatous eyes, control eyes 4.01±0.86, untreated glaucomatous eyes 11.11±3.62, P<0.05) | TUNEL labeling of endothelial Schlemm cells (retinal ganglion cells; [3]) | TUNEL labeling of retinal cells (inner nuclear layer and ganglion cell layer) (retinal ganglion cells; [3]) | trabecular cell apoptosis (TUNEL) (trabecular cells) | trabecular cell apoptosis (TUNEL) (trabecular cells; listed as NBI-74330) | effect on IOP in control (nonglaucomatous, non-operated) eyes ([1]; listed as NBI-74330) | duration of reduction in IOP ([1]; glaucoma eyes, one single subconjunctival injection, 1 μM, p<0.001) [days] | IOP after a second injection ([1]; glaucoma eyes, second subconjunctival injection 4 days after the first one) | time course of IOP lowering after a single injection ([1]; glaucoma eyes, single subconjunctival injection 1 μM, 100 μl) | duration of decrease in IOP ([1]; glaucoma eyes, two subconjunctival injections, 1 μM, p<0.001) [days] | dose dependence of IOP reduction ([1]; glaucomatous eyes (n=20), FIG. 2) | effect on IOP in glaucoma eyes ([1]; surgically-induced elevated IOP, subconjunctival injection 1 μM, 100 μl)
1 | c1cc(CN2CCCNCCNCCCNCC2)ccc1CN1CCCNCCNCCCNCC1 [AMD3100] | did not affect the IOP; also recorded: had no effect on the basal IOP level | had any effect on IOP | did not affect the IOP | did not influence IOP | – | – | – | – | – | – | – | – | – | – | – | – | – | –
2 | CCOc1ccc(-n2c(C(C)N(Cc3cccnc3)C(=O)Cc3ccc(F)c(C(F)(F)F)c3)nc3ncccc3c2=O)cc1 (stereo not shown) [NBI74330] | did not influence the IOP; also recorded: had no effect on the basal IOP level | – | – | – | significantly improved | AHO was improved; also recorded: aqueous humor outflow impairment was significantly reversed | 5.73±1.15 apoptotic retinal ganglion cells/mm | more TUNEL labeling in the untreated glaucoma eyes than in glaucoma eyes treated with NBI74330 | more TUNEL labeling in the untreated glaucoma eyes than in glaucoma eyes treated with NBI74330 | Apoptosis was higher in trabecular cells of untreated glaucoma eyes than in glaucoma eyes treated with NBI74330 | Trabecular apoptosis was reversed; also recorded: significantly reduced the amount of apoptotic TCs | had any effect on IOP | 3 | a significantly low IOP was maintained until the end of the experiments | significant the 2nd to the 5th day after the treatment, reaching the average IOP level of control eyes | 12 | reduced the IOP in glaucomatous eyes (n=20) in a dose-dependent manner | induced an IOP lowering
